Each structure is given as a SMILES string. Values joined by “and” are separate entries in the source; they are usually repeats but may differ in a detail not shown here. Equal values may be shown once. Read-outs that look alike come from different tables or passages of the source.

The format of series [1] is in vivo, Sprague-Dawley rats.
The conditions of series [2]: oral administration; ref Sezgin-Bayindir et al., 2013; Cai et al., 2014; cited from earlier work.
A short description of series [3]: In vitro daunomycin cytotoxicity assay. Type of series: cell-based. Particulars: human.
Where [4] appears, read: male, Sprague-Dawley, rat, plasma, iv, 2 mg/kg.
Setting [5] is: male, Sprague-Dawley, rat, plasma, po, 25 mg/kg.

What is called AUC(0-inf) is the area under the concentration-time curve extrapolated to infinity. Read a high AUC(0-inf) as high exposure. The AUC(0-t) is the area under the concentration-time curve up to a stated or last time point. The Vd is the apparent volume that relates the amount in the body to the concentration in plasma or blood. A high value points to extensive tissue distribution. One may read the half-life as how long it takes for the measured level to halve. A low value points to rapid decline. The term Cmax denotes the highest concentration seen after dosing. By Tmax is commonly meant the time at which the peak concentration occurs. As usually defined, the Vd/F is the apparent distribution volume after extravascular dosing. With `CC(=O)O[C@H]1C(=O)[C@@]2(C)[C@H]([C@H](OC(=O)c3ccccc3)[C@]3(O)C[C@H](OC(=O)[C@H](O)[C@@H](NC(=O)c4ccccc4)c4ccccc4)C(C)=C1C3(C)C)[C@]1(OC(C)=O)CO[C@@H]1C[C@@H]2O` [PTX, Paclitaxel], the “Clt of PTX” value in series [1] (PTX IV 2 mg/kg, rats, 2 mg/kg) was 0.328 L/h and 0.328 ± 0.097 L/h. Besides, the “Relative BA of PTX” value in series [1] (PTX PO 25 mg/kg alone (oral control), rats) is reported as 100.0%. Further, the “Absolute BA of PTX” value in series [1] (PTX PO 25 mg/kg alone vs IV 2 mg/kg, rats) is listed as 2.0%. Further, in series [1] (PTX PO 25 mg/kg alone, rats), the “Clt/F of PTX” value is given as 12.7 ± 2.8 L/h. In series [1] (setting [4]), this compound yielded an AUC(0-inf) of 1790 ± 522 ng·h/mL, an AUC(0-t) of 1660 ± 499 ng·h/mL, a C0 of 3330 ± 1160 ng/mL and a Vd of 2.06 ± 0.36 L. Moreover, in series [1] (setting [4]), the half-life is 4.55 ± 1.02 h and the k el is 4.47e-05 s⁻¹. Moreover, in series [1] (setting [5]), the AUC(0-inf) was 564 ± 116 ng·h/mL, the AUC(0-t) came to 409 ± 47.2 ng·h/mL, the Cmax worked out at 60.6 ± 10.3 ng/mL and the Tmax was found to be 4.2 ± 1.1 h. In series [1] (setting [5]), this compound showed a Vd/F of 73.6 ± 14.9 L, a half-life of 4.26 ± 1.62 h and a k el of 5.06e-05 s⁻¹. Moreover, the “Oral bioavailability of PTX” value in series [2] is recorded as less than 5%.
Broadly, the IC50 is the concentration needed to halve the response being measured. Higher therefore signals lower potency. `COc1cccc2c1C(=O)c1c(O)c3c(c(O)c1C2=O)C[C@@](O)(C(C)=O)C[C@@H]3O[C@H]1C[C@H](N)[C@H](O)[C@H](C)O1` [DNM, Daunomycin] gave an IC50 at 2 h in series [3] of 10.4 ± 0.53 µM.

Values taken from article PMC5590800 (Biomolecules & Therapeutics, 2017).
